The record followed here is patent publication US20260007758A1, “SO[…]-2 RECEPTOR (SST2R) NON-PEPTIDE DRUG CONJUGATES AND USES THEREOF” (Crinetics Pharmaceuticals, Inc., priority 2024, published 2026).

pEC50: −log10 of the molar value.

Common to all, as to assay type: cell-based
In assay [1] the target is T1, human somatostatin receptor subtype 2 (Homo sapiens, UniProt P30874).
T1 construct: expressed in transfected cells
As to the kind of experiment: Functional assay for SSTR2 agonists (HTRF cAMP). To be noted: CHO-K1 cells stably expressing human SST2; NKH477-stimulated cAMP; 20 min at 37 C; read-out: hSST2 cAMP Avg EC50. An outline of the steps: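 Agonist activity read as fall in intracellular cAMP: HTRF 665/620 nm ratio regressed to a cAMP standard curve, EC50 fitted. Stable human SSTR2 CHO-K1 cells exposed 20 min at 37 °C to compound, final concentrations typically 0-10,000 nM.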
A general note: TR-FRET usually uses a lanthanide donor and a delayed reading to cut background.

The next assay deals with T2, SST2 (Homo sapiens, UniProt P30874).
T2 construct: host or cells: PathHunter CHO-K1 SST2 cells
T2 sequence (P30874 whole entry): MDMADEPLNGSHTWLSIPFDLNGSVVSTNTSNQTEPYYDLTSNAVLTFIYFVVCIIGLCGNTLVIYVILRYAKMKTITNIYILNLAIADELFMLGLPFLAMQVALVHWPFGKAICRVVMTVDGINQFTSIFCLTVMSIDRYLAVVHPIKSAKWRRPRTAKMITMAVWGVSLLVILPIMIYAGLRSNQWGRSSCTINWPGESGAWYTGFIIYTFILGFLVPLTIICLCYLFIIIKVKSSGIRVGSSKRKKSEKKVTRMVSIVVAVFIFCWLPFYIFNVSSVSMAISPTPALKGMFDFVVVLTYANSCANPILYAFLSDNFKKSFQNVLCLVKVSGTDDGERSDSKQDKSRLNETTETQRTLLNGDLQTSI
Kind of assay: PathHunter CHO-K1 SST2 Internalization Assay. To be noted: PathHunter CHO-K1 SST2 cells; 90 min at 37 C; luminescence; read-out: Internalization EC50. Put shortly:
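Four-parameter nonlinear fits of background-corrected luminescence (duplicate means) gave IC50s. NDCs were serially diluted 1:3 over 11 points from a 10 uM final top concentration and incubated 90 min at 37 C with human SST2 CHO-K1 cells plated 48 h earlier at 2500/well. Beta-Glo read-out developed 60 min at RT.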

Assay [2] concerns NCI-H524 human small cell lung cancer cells. As to the kind of experiment: H524 assay: inhibition of cell proliferation (CellTiter Glo). To be noted: 2 h treatment, washout, additional 70 h incubation. An outline of the steps: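 Proliferation was measured by CellTiter Glo 70 h after a washout that followed a 2 h pulse of NDC. Doses were an 11-point, two-fold dilution series from 1 uM. IC50 was fitted with a four-parameter model to luminescence-based % inhibition relative to control cells.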
In general terms: In ATP-based viability assays light output follows the ATP content of the culture.

T1 sequence (P30874 whole entry): as above

Regarding `CC[C@H](C)[C@@H]([C@@H](CC(=O)N1CCC[C@H]1[C@H](OC)[C@@H](C)C(=O)N[C@H](C)[C@@H](O)c1ccccc1)OC)N(C)C(=O)[C@@H](NC(=O)[C@H](C(C)C)N(C)C(=O)OCc1ccc(NC(=O)[C@H](CCCNC(N)=O)NC(=O)[C@@H](NC(=O)CCOCCC(=O)NCCNc2ncc(-c3cc(C)cc(F)c3)c(N3CCC(N)CC3)c2-c2nc3ccc(Cl)cc3[nH]2)C(C)C)c(O[C@@H]2O[C@H](C(=O)NCCNC(=O)CCOCCOCCOCCOCCC(=O)O)[C@@H](O)[C@H](O)[C@H]2O)c1)C(C)C` [Compound 52], the pEC50 (as a rule, −log10 of the EC50, conventionally taken in molar units) was 9.85 in assay [1], 8.46 at SST2 and 7.77 in assay [2].

As to `CC[C@H](C)[C@@H]([C@@H](CC(=O)N1CCC[C@H]1[C@H](OC)[C@@H](C)C(=O)N[C@H](C)[C@@H](O)c1ccccc1)OC)N(C)C(=O)[C@@H](NC(=O)[C@H](C(C)C)N(C)C(=O)OCc1ccc(NC(=O)[C@H](CCCNC(N)=O)NC(=O)[C@@H](NC(=O)[C@H](CCC(=O)O)NC(=O)CCOCCC(=O)NCCNc2ncc(-c3cc(C)cc(F)c3)c(N3CCC(N)CC3)c2-c2nc3cc(F)cc(OC)c3[nH]2)C(C)C)cc1C(=O)NCCN)C(C)C` [Compound 79], the pEC50 is 9.92 in assay [1], 8.29 at SST2 and 8.11 in assay [2].

Turning to `CC[C@H](C)[C@@H]([C@@H](CC(=O)N1CCC[C@H]1[C@H](OC)[C@@H](C)C(=O)N[C@H](C)[C@@H](O)c1ccccc1)OC)N(C)C(=O)[C@@H](NC(=O)[C@H](C(C)C)N(C)C(=O)OCc1ccc(NC(=O)[C@H](CCCNC(N)=O)NC(=O)[C@@H](NC(=O)c2cc(NCCCCCC(=O)NCCNc3ncc(-c4cc(C)cc(F)c4)c(N4CCC(N)CC4)c3-c3nc4ccc(F)cc4[nH]3)cc(C(=O)NCC(=O)O)c2)C(C)C)cc1)C(C)C` [Compound 167], the pEC50 in assay [1] is 9.62; at SST2, 7.89; in assay [2], 6.82.

Regarding `CC[C@H](C)[C@@H]([C@@H](CC(=O)N1CCC[C@H]1[C@H](OC)[C@@H](C)C(=O)N[C@H](C)[C@@H](O)c1ccccc1)OC)N(C)C(=O)[C@@H](NC(=O)[C@H](C(C)C)N(C)C(=O)OCc1ccc(NC(=O)[C@H](C)NC(=O)[C@@H](NC(=O)CCOCCOCCOCCOCCC(=O)NCCNc2ncc(-c3cc(C)cc(F)c3)c(N3CCC(N)CC3)c2-c2cc3ccc(Cl)cc3[nH]2)C(C)C)c(O[C@@H]2O[C@H](C(=O)O)[C@@H](O)[C@H](O)[C@H]2O)c1)C(C)C` [Compound 112], the pEC50 was 9.92 in assay [1], 8.08 on SST2 and 8.00 in assay [2].

Consider `CC[C@H](C)[C@@H]([C@@H](CC(=O)N1CCC[C@H]1[C@H](OC)[C@@H](C)C(=O)N[C@H](C)[C@@H](O)c1ccccc1)OC)N(C)C(=O)[C@@H](NC(=O)[C@H](C(C)C)N(C)C(=O)OCc1ccc(NC(=O)[C@H](CCCNC(N)=O)NC(=O)[C@@H](NC(=O)CCOCCC(=O)NCCNc2ncc(-c3cc(C)cc(F)c3)c(N3CCC(N)CC3)c2-c2nc3ccc(Cl)cc3[nH]2)C(C)C)c(O[C@@H]2O[C@H](C(=O)NCCN)[C@@H](O)[C@H](O)[C@H]2O)c1)C(C)C` [Compound 40], for which the results for the pEC50 (in assay [1]; on SST2; in assay [2]) were 9.70, 8.06 and 8.77, respectively.

Take `CC[C@H](C)[C@@H]([C@@H](CC(=O)N1CCC[C@H]1[C@H](OC)[C@@H](C)C(=O)N[C@H](C)[C@@H](O)c1ccccc1)OC)N(C)C(=O)[C@@H](NC(=O)[C@H](C(C)C)N(C)C(=O)OCc1ccc(NC(=O)[C@H](CCCNC(N)=O)NC(=O)[C@@H](NC(=O)C[C@@H](N)C(=O)NCCOCCC(=O)NCCNc2ncc(-c3cc(C)cc(F)c3)c(N3CCC(N)CC3)c2-c2nc3ccc(Cl)cc3[nH]2)C(C)C)c(OCC(=O)O)c1)C(C)C` [Compound 22]: the negative-log EC50 (pEC50) in assay [1] is 9.77; at SST2, 7.77; in assay [2] it was 7.66.

In the case of `CC[C@H](C)[C@@H]([C@@H](CC(=O)N1CCC[C@H]1[C@H](OC)[C@@H](C)C(=O)N[C@H](C)[C@@H](O)c1ccccc1)OC)N(C)C(=O)[C@@H](NC(=O)[C@H](C(C)C)N(C)C(=O)OCc1ccc(NC(=O)[C@H](CCCNC(N)=O)NC(=O)[C@@H](NC(=O)CCOCCC(=O)NCCNc2ncc(-c3cc(C)cc(F)c3)c(N3CCC(N)CC3)c2-c2nc3ccc(Cl)cc3[nH]2)C(C)C)c(C)c1)C(C)C` [Compound 9], the pEC50 is 9.42 in assay [1], 8.60 on SST2 and 8.37 in assay [2].

On to `CC[C@H](C)[C@@H]([C@@H](CC(=O)N1CCC[C@H]1[C@H](OC)[C@@H](C)C(=O)N[C@H](C)[C@@H](O)c1ccccc1)OC)N(C)C(=O)[C@@H](NC(=O)[C@H](C(C)C)N(C)C(=O)OCc1ccc(NC(=O)[C@H](CCCNC(N)=O)NC(=O)[C@@H](NC(=O)c2cc(NCCOCCOCCOCCC(=O)NCCNc3ncc(-c4cc(C)cc(F)c4)c(N4CCC(N)CC4)c3-c3nc4ccc(Cl)cc4[nH]3)cc(C(=O)NCCN)c2)C(C)C)cc1)C(C)C` [Compound 179], for which the pEC50 in assay [1] was 9.27; on SST2, 8.01; in assay [2] it was 6.43.

As to `CC[C@H](C)[C@@H]([C@@H](CC(=O)N1CCC[C@H]1[C@H](OC)[C@@H](C)C(=O)N[C@H](C)[C@@H](O)c1ccccc1)OC)N(C)C(=O)[C@@H](NC(=O)[C@H](C(C)C)N(C)C(=O)OCc1ccc(NC(=O)[C@H](CCCNC(N)=O)NC(=O)[C@@H](NC(=O)CCOCCOCCOCCOCCC(=O)NCCNc2ncc(-c3cc(C)cc(F)c3)c(N3CCC(N)CC3)c2-c2nc3ccc(Cl)cc3[nH]2)C(C)C)c(OCC(=O)O)c1)C(C)C` [Compound 19], the pEC50 is 10.15 in assay [1], 8.09 on SST2 and 7.55 in assay [2].

For the molecule `CC[C@H](C)[C@@H]([C@@H](CC(=O)N1CCC[C@H]1[C@H](OC)[C@@H](C)C(=O)N[C@H](C)[C@@H](O)c1ccccc1)OC)N(C)C(=O)[C@@H](NC(=O)[C@H](C(C)C)N(C)C(=O)OCc1ccc(NC(=O)[C@H](CCCNC(N)=O)NC(=O)[C@@H](NC(=O)C[C@@H](N)C(=O)NCCOCCC(=O)NCCNc2ncc(-c3cc(C)cc(F)c3)c(N3CCC(N)CC3)c2-c2nc3ccc(Cl)cc3[nH]2)C(C)C)cc1)C(C)C` [Compound 181], the pEC50 in assay [1] is 9.42; at SST2, 8.47; in assay [2], 6.72.

Turning to `CC[C@H](C)[C@@H]([C@@H](CC(=O)N1CCC[C@H]1[C@H](OC)[C@@H](C)C(=O)N[C@H](C)[C@@H](O)c1ccccc1)OC)N(C)C(=O)[C@@H](NC(=O)[C@H](C(C)C)N(C)C(=O)OCc1ccc(NC(=O)[C@H](CCCNC(N)=O)NC(=O)[C@@H](NC(=O)c2cc(NCCOCCC(=O)NCCNc3ncc(-c4cc(C)cc(F)c4)c(N4CCC(N)CC4)c3-c3nc4ccc(Cl)cc4[nH]3)cc(C(=O)NCCCC(=O)O)c2)C(C)C)cc1)C(C)C` [Compound 146], the pEC50 in assay [1] is 9.54; on SST2, 8.00; in assay [2] it was 7.21.

Turning to `CC[C@H](C)[C@@H]([C@@H](CC(=O)N1CCC[C@H]1[C@H](OC)[C@@H](C)C(=O)N[C@H](C)[C@@H](O)c1ccccc1)OC)N(C)C(=O)[C@@H](NC(=O)[C@H](C(C)C)N(C)C(=O)OCc1ccc(NC(=O)[C@H](CCCNC(N)=O)NC(=O)[C@@H](NC(=O)CCOCCC(=O)NCCNc2ncc(-c3cc(C)cc(F)c3)c(N3CCC(N)CC3)c2-c2nc3ccc(Cl)cc3[nH]2)C(C)C)cc1C(=O)NOC)C(C)C` [Compound 87], the pEC50 in assay [1] is 10.00; on SST2, 8.34; in assay [2], 6.22.

Turning to `CC[C@H](C)[C@@H]([C@@H](CC(=O)N1CCC[C@H]1[C@H](OC)[C@@H](C)C(=O)N[C@H](C)[C@@H](O)c1ccccc1)OC)N(C)C(=O)[C@@H](NC(=O)[C@H](C(C)C)N(C)C(=O)OCc1ccc(NC(=O)[C@H](CCCNC(N)=O)NC(=O)[C@@H](NC(=O)CCCC(=O)N(C)CC(=O)NCCNc2ncc(-c3cc(C)cc(F)c3)c(N3CCC(N)CC3)c2-c2nc3ccc(Cl)cc3[nH]2)C(C)C)c(O[C@@H]2O[C@H](C(=O)NCCN)[C@@H](O)[C@H](O)[C@H]2O)c1)C(C)C` [Compound 209], the pEC50 in assay [1] was 9.96; on SST2, 8.57; in assay [2], 8.82.

Turning to `CC[C@H](C)[C@@H]([C@@H](CC(=O)N1CCC[C@H]1[C@H](OC)[C@@H](C)C(=O)N[C@H](C)[C@@H](O)c1ccccc1)OC)N(C)C(=O)[C@@H](NC(=O)[C@H](C(C)C)N(C)C(=O)OCc1ccc(NC(=O)[C@H](C)NC(=O)[C@@H](NC(=O)CCOCCC(=O)NCCNc2ncc(-c3cc(C)cc(F)c3)c(N3CCC(N)CC3)c2-c2nc3c(F)c(F)ccc3[nH]2)C(C)C)c(O[C@@H]2O[C@H](C(=O)O)[C@@H](O)[C@H](O)[C@H]2O)c1)C(C)C` [Compound 109], the pEC50 in assay [1] was 8.96; on SST2, 7.46; in assay [2], 6.70.

As to `CC[C@H](C)[C@@H]([C@@H](CC(=O)N1CCC[C@H]1[C@H](OC)[C@@H](C)C(=O)N[C@H](C)[C@@H](O)c1ccccc1)OC)N(C)C(=O)[C@@H](NC(=O)C(C(C)C)N(C)C(=O)OCc1ccc(NC(=O)[C@H](CCCNC(N)=O)NC(=O)[C@@H](NC(=O)CCOCCC(=O)NCCNc2ncc(-c3cc(C)cc(F)c3)c(N3CCC(N)CC3)c2-c2nc3ccc(Cl)cc3[nH]2)C(C)C)c(O[C@@H]2O[C@H](C(=O)N3CCN(CCO)CC3)[C@@H](O)[C@H](O)[C@H]2O)c1)C(C)C` (stereo partly drawn) [Compound 229], the figures for the pEC50 (in assay [1]; at SST2; in assay [2]) were 10.00, 8.32 and 8.40, respectively.
